# Laboratory results: ChEMBL document CHEMBL1926642, “Relevance of the C-5 position to schweinfurthin induced cytotoxicity” (2011)
# Experiments:
# Type in all cases: functional
# [1] = system: MOLT-4; assay: Growth inhibition of human MOLT4 cells after 48 hrs by sulforhodamine B assay; details: MOLT-4, 48 h
# [2] = system: HT-29; assay: Growth inhibition of human HT-29 cells after 48 hrs by sulforhodamine B assay; details: HT-29, 48 h
# [3] = system: SF-539; assay: Growth inhibition of human SF539 cells after 48 hrs by sulforhodamine B assay; details: SF-539, 48 h
# [4] = system: SNB-19; assay: Growth inhibition of human SNB19 cells after 48 hrs by sulforhodamine B assay; details: SNB-19, 48 h
# [5] = system: LOX IMVI; assay: Growth inhibition of human LOXIMVI cells after 48 hrs by sulforhodamine B assay
# [6] = system: Malme-3M; assay: Growth inhibition of human MALME-3M cells after 48 hrs by sulforhodamine B assay
# [7] = system: M14; assay: Growth inhibition of human M14 cells after 48 hrs by sulforhodamine B assay; details: M14, 48 h
# [8] = system: MDA-MB-435; assay: Growth inhibition of human MDA-MB-435 cells after 48 hrs by sulforhodamine B assay; details: MDA-MB-435, 48 h
# [9] = system: SK-MEL-2; assay: Growth inhibition of human SK-MEL-2 cells after 48 hrs by sulforhodamine B assay; details: SK-MEL-2, 48 h
# [10] = system: SK-MEL-5; assay: Growth inhibition of human SK-MEL-5 cells after 48 hrs by sulforhodamine B assay; details: SK-MEL-5, 48 h
# [11] = system: UACC-257; assay: Growth inhibition of human UACC257 cells after 48 hrs by sulforhodamine B assay; details: UACC-257, 48 h
# [12] = system: UACC-62; assay: Growth inhibition of human UACC62 cells after 48 hrs by sulforhodamine B assay; details: UACC-62, 48 h
# [13] = system: IGROV-1; assay: Growth inhibition of human IGROV1 cells after 48 hrs by sulforhodamine B assay; details: IGROV-1, 48 h
# [14] = system: OVCAR-3; assay: Growth inhibition of human OVCAR3 cells after 48 hrs by sulforhodamine B assay; details: OVCAR-3, 48 h
# [15] = system: OVCAR-4; assay: Growth inhibition of human OVCAR4 cells after 48 hrs by sulforhodamine B assay; details: OVCAR-4, 48 h
# [16] = system: OVCAR-8; assay: Growth inhibition of human OVCAR8 cells after 48 hrs by sulforhodamine B assay; details: OVCAR-8, 48 h
# [17] = system: NCI/ADR-RES; assay: Growth inhibition of human NCI/ADR-RES cells after 48 hrs by sulforhodamine B assay
# [18] = system: 786-0; assay: Growth inhibition of human 786-0 cells after 48 hrs by sulforhodamine B assay; details: 786-0, 48 h
# [19] = system: A498; assay: Growth inhibition of human A498 cells after 48 hrs by sulforhodamine B assay; details: A498, 48 h
# [20] = system: CAKI-1; assay: Growth inhibition of human Caki1 cells after 48 hrs by sulforhodamine B assay; details: CAKI-1, 48 h
# [21] = system: SN12C; assay: Growth inhibition of human SN12C cells after 48 hrs by sulforhodamine B assay
# [22] = system: TK-10; assay: Growth inhibition of human TK10 cells after 48 hrs by sulforhodamine B assay; details: TK-10, 48 h
# [23] = system: DU-145; assay: Growth inhibition of human DU145 cells after 48 hrs by sulforhodamine B assay; details: DU-145, 48 h
# [24] = system: MCF7; assay: Growth inhibition of human MCF7 cells after 48 hrs by sulforhodamine B assay; details: MCF7, 48 h
# [25] = system: MDA-MB-231; assay: Growth inhibition of human MDA-MB-231/ATCC cells after 48 hrs by sulforhodamine B assay; details: MDA-MB-231, 48 h
# [26] = system: MDA-MB-468; assay: Growth inhibition of human MDA-MB-468 cells after 48 hrs by sulforhodamine B assay; details: MDA-MB-468, 48 h
# [27] = system: SR; assay: Growth inhibition of human SR cells after 48 hrs by sulforhodamine B assay
# [28] = read-out: pLC50 (the source's name) (converted)
smiles,measurement,setting,value
COc1cc(/C=C/c2cc3c(c(SC)c2)O[C@]2(C)CC[C@@H](O)C(C)(C)[C@H]2C3)cc(O)c1C/C=C(\C)CCC=C(C)C,GI50,[1],4.27 µM
same,LC50,[1],> 100 µM
same,TGI,[1]; read-out: pTGI (converted),100 µM
same,GI50,[2],2.09 µM
same,LC50 (concentration killing 50% of cells),[2],> 100 µM
same,TGI,[2]; read-out: pTGI (converted),16.2 µM
same,GI50,[3],3.98 µM
same,LC50,[3],> 100 µM
same,TGI,[3]; read-out: pTGI (converted),41.7 µM
same,GI50,[4],28.2 µM
same,LC50,[4],> 100 µM
same,TGI,[4]; read-out: pTGI (converted),> 100 µM
same,GI50,[5],4.37 µM
same,LC50,[5],47.9 µM
same,TGI,[5]; read-out: pTGI (converted),13.2 µM
same,GI50,[6],30.9 µM
same,LC50,[6],> 100 µM
same,TGI,[6]; read-out: pTGI (converted),> 100 µM
same,GI50,[7],8.13 µM
same,LC50,[7],95.5 µM
same,TGI,[7]; read-out: pTGI (converted),28.8 µM
same,GI50,[8],12.9 µM
same,LC50,[8],> 100 µM
same,TGI,[8]; read-out: pTGI (converted),74.1 µM
same,GI50,[9],12.6 µM
same,LC50,[9],69.2 µM
same,TGI,[9]; read-out: pTGI (converted),29.5 µM
same,GI50,[10],9.77 µM
same,LC50,[10],55 µM
same,TGI,[10]; read-out: pTGI (converted),23.4 µM
same,GI50,[11],14.5 µM
same,LC50,[11],> 100 µM
same,TGI,[11]; read-out: pTGI (converted),64.6 µM
same,GI50,[12],7.08 µM
same,LC50 (50% lethal concentration),[12],> 100 µM
same,TGI,[12]; read-out: pTGI (converted),28.8 µM
same,GI50,[13],39.8 µM
same,LC50,[13],> 100 µM
same,TGI,[13]; read-out: pTGI (converted),> 100 µM
same,GI50,[14],5.89 µM
same,LC50,[14],43.7 µM
same,TGI,[14]; read-out: pTGI (converted),18.2 µM
same,GI50,[15],23.4 µM
same,LC50,[15],> 100 µM
same,TGI,[15]; read-out: pTGI (converted),> 100 µM
same,GI50,[16],14.8 µM
same,LC50,[16],> 100 µM
same,TGI,[16]; read-out: pTGI (converted),41.7 µM
same,GI50,[17],11 µM
same,LC50,[17],> 100 µM
same,TGI,[17]; read-out: pTGI (converted),38 µM
same,GI50,[18],5.01 µM
same,CC50,[18]; [28],67.6 µM
same,TGI,[18]; read-out: pTGI (converted),21.4 µM
same,GI50,[19],4.57 µM
same,LC50,[19],67.6 µM
same,TGI,[19]; read-out: pTGI (converted),22.4 µM
same,GI50,[20],27.5 µM
same,LC50,[20],> 100 µM
same,TGI,[20]; read-out: pTGI (converted),> 100 µM
same,GI50,[21],10.5 µM
same,LC50,[21],> 100 µM
same,TGI,[21]; read-out: pTGI (converted),32.4 µM
same,GI50,[22],20.9 µM
same,LC50,[22],> 100 µM
same,TGI,[22]; read-out: pTGI (converted),> 100 µM
same,GI50,[23],8.71 µM
same,LC50,[23],93.3 µM
same,TGI,[23]; read-out: pTGI (converted),29.5 µM
same,GI50,[24],7.76 µM
same,LC50,[24],> 100 µM
same,TGI,[24]; read-out: pTGI (converted),45.7 µM
same,GI50,[25],3.39 µM
same,CC50,[25]; [28],56.2 µM
same,TGI,[25]; read-out: pTGI (converted),14.5 µM
same,GI50,[26],4.57 µM
same,LC50,[26],87.1 µM
same,TGI,[26]; read-out: pTGI (converted),20 µM
same,GI50,[27],3.8 µM
same,LC50,[27],> 100 µM
same,TGI,[27]; read-out: pTGI (converted),> 100 µM
